As usually defined, the IC50 is the point on the concentration scale where inhibition reaches its midpoint.

Each structure is given as a SMILES string. Bounds are passed on as bounds.

For this assay, the system named is PDE1. The experiment in a line: In vitro HTRF PDE1 inhibition assay. The assay is classed as biochemical. The settings on record: HTRF cGMP assay, 100 nM cyclic GMP, PDE (1A3, 1B or 1C) with calmodulin, 45 minutes at 37° C.; isoform of the tabulated values not stated. From the text: An exemplary procedure for the in vitro Homogenous Time Resolved Fluorescence assay, which can be used to determine the inhibitory action of compounds of the invention toward. PDE1 or its isoforms, follows.
The HTRF PDE1 assay utilized the HTRF (Homogenous Time Resolved Fluorescence) technology, which is based on the competition between unlabeled cyclic nucleotide and cyclic nucleotide labeled with XL665 for the binding to cyclic nucleotide-specific antibody labeled with cryptate. The HTRF signal is thus inversely proportional to the concentration of cyclic nucleotide being measured. Since phosphodiesterases break down cyclic nucleotides the HTRF signal was used to determine PDE activity.
The Cisbio cGMP HTRF assay kit (Cat no: 62GM2PEC) was utilized. Cyclic GMP was diluted to 200 nM in HTRF assay buffer (1 mM CaCl2, 10 mM MgCl2, 10 mM Tris-HCl, 0.1% BSA, pH7.4). 10 μl of compound or DMSO was diluted in 200 nM cyclic GMP solution and added to wells of a 96 well white plate to give 100 nM cyclic GMP in 1% DMSO final concentration. PDE (1A3, 1B or 1C) was diluted to 2× working concentration in HTRF assay buffer with […] Calmodulin, and 10 μl was added to initiate the reaction. The plate was then incubated for 45 minutes at 37° C. d2-Labelled cyclic GMP and anti-cGMP cryptate were diluted in 50 mM phosphate buffer, 0.8M KF, 1% Triton X100, 0.2% BSA, pH7.0. Following incubation 10 μl d2-cGMP, then 10 μl anti cGMP cryptate were added to each well and the plate was incubated for 45 minutes at room temperature. The plate was then read on Perkin Elmer Victor at 2 different FRET readings ex/emm 340 nm/665 nm and 340 nm/615 nm.
Compounds having an IC50 of <1 μM, are denoted as +++. Compounds having an IC50 of 1-10 μM, are denoted as ++. Compounds having an IC50 of >10 μM, are denoted as +.
`COc1ccc(CN2CCn3c(nc4c(cnn4C(C)C)c3=O)C2)cc1F` [Compound I-140, 8-(3-Fluoro-4-methoxybenzyl)-1-isopropyl-6,7,8,9-tetrahydropyrazino[1,2-a]pyrazolo[3,4-d]pyrimidin-4(1H)-one] yielded a 50% inhibitory concentration (IC50) of less than 1 µM.

Compound `CCCn1ncc2c(=O)n3c(nc21)CN(Cc1ccc(Cl)c(Cl)c1)CC3` [Compound I-165, 8-(3,4-Dichlorobenzyl)-1-propyl-6,7,8,9-tetrahydropyrazino[1,2-a]pyrazolo[3,4-d]pyrimidin-4(1H)-one] yielded a half-maximal inhibitory concentration (IC50) of 1 to 10 µM.

As to `CC(C)CC1c2nc3c(cnn3C(C)C)c(=O)n2CCN1Cc1ccccc1` (racemic) [Compound I-56, (±)-8-benzyl-9-isobutyl-1-isopropyl-6,7,8,9-tetrahydropyrazino[1,2-a]pyrazolo[3,4-d]pyrimidin-4(1H)-one], the IC50 was in the range of 1 to 10 µM.

Consider `COc1cccc(CN2CCn3c(nc4c(cnn4C(C)C)c3=O)C2)c1` [Compound I-79, 1-Isopropyl-8-(3-methoxybenzyl)-6,7,8,9-tetrahydropyrazino[1,2-a]pyrazolo[3,4-d]pyrimidin-4(1H)-one], for which the concentration for half-maximal inhibition (IC50) lay in the range of 1 to 10 µM.

The compound `CN1Cc2nc3c(cnn3C3CCCC3)c(=O)n2C(c2ccccc2)C1` (racemic) [Compound I-102, (±)-1-cyclopentyl-8-methyl-6-phenyl-6,7,8,9-tetrahydropyrazino[1,2-a]pyrazolo[3,4-d]pyrimidin-4(1H)-one] came in with an IC50 greater than 10 µM.

Take `CC(C)c1n[nH]c2c(=O)n3c(nc12)C(Cc1ccccc1)N(C)CC3` (racemic) [Compound I-39, (±)-5-Benzyl-3-isopropyl-6-methyl-5,6,7,8-tetrahydropyrazino[1,2-a]pyrazolo[4,3-d]pyrimidin-10(1H)-one]: the IC50 is greater than 10 µM.

Consider `CC(C)n1ncc2c(=O)n3c(nc21)CN(Cc1ccc(-c2ccccc2)cc1)CC3` [Compound I-66, 8-([1,1′-Biphenyl]-4-ylmethyl)-1-isopropyl-6,7,8,9-tetrahydropyrazino[1,2-a]pyrazolo[3,4-d]pyrimidin-4(1H)-one], for which the IC50 lay in the range of 1 to 10 µM.

In turn, `O=c1c2cn[nH]c2nc2n1CCN(Cc1ccccc1)C2Cc1ccccc1` (racemic) [Compound I-34, (±)-8,9-Dibenzyl-6,7,8,9-tetrahydropyrazino[1,2-a]pyrazolo[3,4-d]pyrimidin-4(1H)-one] returned an IC50 greater than 10 µM.

In the case of `COCCn1ncc2c(=O)n3c(nc21)CN(c1ccc(Cl)cc1)CC3` [Compound I-256, 8-(4-Chlorophenyl)-1-(2-methoxyethyl)-6,7,8,9-tetrahydropyrazino[1,2-a]pyrazolo[3,4-d]pyrimidin-4(1H)-one], the IC50 is 1 to 10 µM.

Consider `Cn1ncc2c(=O)n3c(nc21)CN(Cc1ccccc1)CC3` [Compound I-28, 8-Benzyl-1-methyl-6,7,8,9-tetrahydropyrazino[1,2-a]pyrazolo[3,4-d]pyrimidin-4(1H)-one], for which the IC50 was greater than 10 µM.

Take `CC(C)n1ncc2c(=O)n3c(nc21)CNC(Cc1ccccc1)C3` (racemic) [Compound I-109, (±)-7-Benzyl-1-isopropyl-6,7,8,9-tetrahydropyrazino[1,2-a]pyrazolo[3,4-d]pyrimidin-4(1H)-one]: the IC50 is greater than 10 µM.

`CC1Cn2c(nc3c(cnn3C(C)C)c2=O)CN1Cc1ccc(F)cc1` (racemic) [Compound I-148, (±)-8-(4-Fluorobenzyl)-1-isopropyl-7-methyl-6,7,8,9-tetrahydropyrazino[1,2-d]pyrazolo[3,4-d]pyrimidin-4(1H)-one] gave an IC50 of less than 1 µM.

On to `CCCn1ncc2c(=O)n3c(nc21)CN(Cc1ccc2c(c1)OCO2)CC3` [Compound I-255, 8-(Benzo[d][1,3]dioxol-5-ylmethyl)-1-propyl-6,7,8,9-tetrahydropyrazino[1,2-a]pyrazolo[3,4-d]pyrimidin-4(1H)-one], for which the IC50 lay within 1 to 10 µM.

Take `Cc1cnc(CN2CCn3c(nc4c(cnn4C(C)C)c3=O)C2)nc1` [Compound I-198, 1-Isopropyl-8-((5-methylpyrimidin-2-yl)methyl)-6,7,8,9-tetrahydropyrazino[1,2-a]pyrazolo[3,4-d]pyrimidin-4(1H)-one]: the IC50 is greater than 10 µM.

`CC(C)c1nn(C)c2c(=O)n3c(nc12)CN(Cc1ccccc1)CC3` [Compound I-46, 6-Benzyl-3-isopropyl-1-methyl-5,6,7,8-tetrahydropyrazino[1,2-a]pyrazolo[4,3-d]pyrimidin-10(1H)-one] showed an IC50 greater than 10 µM.

In turn, `CCC1Cn2c(nc3c(cnn3C(C)C)c2=O)CN1Cc1ccc(OC)cc1` (racemic) [Compound I-153, (±)-7-Ethyl-1-isopropyl-8-(4-methoxybenzyl)-6,7,8,9-tetrahydropyrazino[1,2-a]pyrazolo[3,4-a]pyrimidin-4(1H)-one] registered an IC50 of 1 to 10 µM.

Compound `COCCn1ncc2c(=O)n3c(nc21)CN(Cc1cccc(OC)c1)CC3` [Compound I-161, 8-(3-Methoxybenzyl)-1-(2-methoxyethyl)-6,7,8,9-tetrahydropyrazino[1,2-a]pyrazolo[3,4-d]pyrimidin-4(1H)-one] displayed a concentration for half-maximal inhibition (IC50) greater than 10 µM.

`CC1c2nc3c(cnn3C(C)C)c(=O)n2CCN1C` (racemic) [Compound I-21, (±)-1-Isopropyl-8,9-dimethyl-6,7,8,9-tetrahydropyrazino[1,2-a]pyrazolo[3,4-d]pyrimidin-4(1H)-one] returned a concentration for half-maximal inhibition (IC50) greater than 10 µM.

In the case of `O=c1n2c(nc3c(C4CCCC4)ncn13)CN(Cc1ccc(Cl)cc1)CC2` [Compound I-258, 6-(4-Chlorobenzyl)-3-cyclopentyl-7,8-dihydro-5H-imidazo[1,5-a]pyrazino[2,1-d][1,3,5]triazin-10(6H)-one], the half-inhibitory concentration (IC50) is less than 1 µM.

`Cc1ncc(CN2CCn3c(nc4c(cnn4C4CCCC4)c3=O)C2)cn1` [Compound I-195, 1-Cyclopentyl-8-((2-methylpyrimidin-5-yl)methyl)-6,7,8,9-tetrahydropyrazino[1,2-a]pyrazolo[3,4-d]pyrimidin-4(1H)-one] gave an IC50 of 1 to 10 µM.

The compound `CCCn1ncc2c(=O)n3c(nc21)CN(Cc1ccccc1)CC3` [Compound I-54, 8-Benzyl-1-propyl-6,7,8,9-tetrahydropyrazino[1,2-a]pyrazolo[3,4-d]pyrimidin-4(1H)-one] came in with an IC50 of 1 to 10 µM.

Consider `COc1cccc(CN2CCn3c(nc4c(cnn4C4CCCC4)c3=O)C2)c1` [Compound I-81, 1-Cyclopentyl-8-(3-methoxybenzyl)-6,7,8,9-tetrahydropyrazino[1,2-a]pyrazolo[3,4-d]pyrimidin-4(1H)-one], for which the IC50 was less than 1 µM.

For `COc1ccc(CN2Cc3nc4c(cnn4C(C)C)c(=O)n3CC2C)cc1` (racemic) [Compound I-146, (±)-1-Isopropyl-8-(4-methoxybenzyl)-7-methyl-6,7,8,9-tetrahydropyrazino[1,2-a]pyrazolo[3,4-d]pyrimidin-4(1H)-one], the IC50 lay in the range of 1 to 10 µM.

As to `CC(C)n1ncc2c(=O)n3c(nc21)C(Cc1ccccc1)N(C)CC3` (racemic) [Compound I-25, (±)-9-Benzyl-1-isopropyl-8-methyl-6,7,8,9-tetrahydropyrazino[1,2-a]pyrazolo[3,4-d]pyrimidin-4(1H)-one], the IC50 was greater than 10 µM.

In turn, `CC(C)n1ncc2c(=O)n3c(nc21)CN(c1ccccc1Cl)CC3` [Compound I-85, 8-(2-Chlorophenyl)-1-isopropyl-6,7,8,9-tetrahydropyrazino[1,2-a]pyrazolo[3,4-d]pyrimidin-4(1H)-one] had an IC50 of 1 to 10 µM.

In the case of `COc1ccccc1N1CCn2c(nc3c(cnn3C(C)C)c2=O)C1` [Compound I-94, 1-Isopropyl-8-(2-methoxyphenyl)-6,7,8,9-tetrahydropyrazino[1,2-a]pyrazolo[3,4-d]pyrimidin-4(1H)-one], the half-maximal inhibitory concentration (IC50) lay within 1 to 10 µM.

For `CC(C)n1ncc2c(=O)n3c(nc21)CN(c1ccncc1)CC3` [Compound I-145, 1-Isopropyl-8-(pyridin-4-yl)-6,7,8,9-tetrahydropyrazino[1,2-a]pyrazolo[3,4-d]pyrimidin-4(1H)-one], the half-inhibitory concentration (IC50) is less than 1 µM.

`CC1c2nc3c(cnn3-c3ccccc3)c(=O)n2CCN1C` (racemic) [Compound I-22, (±)-8,9-Dimethyl-1-phenyl-6,7,8,9-tetrahydropyrazino[1,2-a]pyrazolo[3,4-d]pyrimidin-4(1H)-one] returned a concentration for half-maximal inhibition (IC50) greater than 10 µM.

As to `CC(C)c1nn(C)c2c(=O)n3c(nc12)C(C)NCC3` (racemic) [Compound I-14, (±)-3-Isopropyl-1,5-dimethyl-5,6,7,8-tetrahydropyrazino[1,2-a]pyrazolo[4,3-d]pyrimidin-10(1H)-one], the IC50 is greater than 10 µM.

Turning to `CC(c1ccc(Cl)cc1)N1CCn2c(nc3c(cnn3C3CCCC3)c2=O)C1` (racemic) [Compound I-113, (±)-8-(1-(4-Chlorophenyl)ethyl)-1-cyclopentyl-6,7,8,9-tetrahydropyrazino[1,2-a]pyrazolo[3,4-d]pyrimidin-4(1H)-one], the IC50 was 1 to 10 µM.
